Measured values from patent US20080009418A1, “Selective Inhibitors” (Alchemia LTD., priority 2004, published 2008).

Key:
Human δ-opioid (DOP) = molecular target: T1, Human δ-opioid (DOP) (Homo sapiens, UniProt P41143); assay: Radioligand binding, human δ-opioid (DOP) membranes, FlashPlate, [3H]-Bremazocine; conditions: compound at 10 μM, [3H]-Bremazocine
T1 construct: purchased Perkin Elmer Biosignal
Method in brief: (§1)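 Cloned human receptor membranes were coated onto FlashPlate wells and incubated with radioligand and compound (added from a 0.5 mM DMSO daughter plate) for 1 hour at room temperature in the dark. Scintillation counting gave percent inhibition, with DMSO defining total and reference ligand defining non-specific binding.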

Human κ-Opioid (KOP) = molecular target: T2, Human κ-Opioid (KOP) (Homo sapiens, UniProt P41145); assay: Radioligand binding, human κ-opioid (KOP) membranes, filtration, [3H]-Diprenorphine; conditions: compound at 10 μM, [3H]-Diprenorphine
T2 construct: purchased Perkin Elmer Biosignal
T2 sequence (P41145 whole entry): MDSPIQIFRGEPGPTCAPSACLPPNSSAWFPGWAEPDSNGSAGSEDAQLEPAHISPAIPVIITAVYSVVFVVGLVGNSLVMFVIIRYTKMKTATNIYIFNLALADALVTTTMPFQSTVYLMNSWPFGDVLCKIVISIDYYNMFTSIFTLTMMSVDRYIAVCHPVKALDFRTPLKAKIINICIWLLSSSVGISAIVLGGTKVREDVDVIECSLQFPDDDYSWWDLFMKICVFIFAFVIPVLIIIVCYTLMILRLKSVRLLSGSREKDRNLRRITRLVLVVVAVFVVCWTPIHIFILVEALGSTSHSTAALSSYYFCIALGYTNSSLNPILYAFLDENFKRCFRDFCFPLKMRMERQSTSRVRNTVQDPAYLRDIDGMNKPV
Method in brief: (§2)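 Membranes from cloned human receptors were incubated with compound and radioligand for 1 hour at room temperature. Bound ligand was collected on 0.3% PEI-soaked filters, washed with cold 50 mM Tris-HCl pH 7.4, and counted by scintillation. Percent inhibition was computed against DMSO totals and reference-ligand nonspecific wells.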

Human Melanocortin (MC3) = molecular target: T3, Human Melanocortin (MC3) (Homo sapiens, UniProt P41968); assay: Radioligand binding, human melanocortin MC3 membranes, FlashPlate, [125I]-NDP-αMSH; conditions: compound at 10 μM, [125I]-NDP-αMSH
T3 construct: purchased Perkin Elmer Biosignal
T3 sequence (P41968 whole entry): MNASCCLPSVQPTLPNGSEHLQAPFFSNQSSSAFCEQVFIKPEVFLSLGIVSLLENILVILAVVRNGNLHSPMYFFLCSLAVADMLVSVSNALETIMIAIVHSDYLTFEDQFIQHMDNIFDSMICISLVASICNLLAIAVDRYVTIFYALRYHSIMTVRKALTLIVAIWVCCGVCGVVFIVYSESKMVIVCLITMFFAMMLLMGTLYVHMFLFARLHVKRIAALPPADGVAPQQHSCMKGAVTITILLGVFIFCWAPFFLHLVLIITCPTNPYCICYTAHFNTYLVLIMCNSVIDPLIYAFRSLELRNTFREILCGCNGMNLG
Method in brief: as §1

Human Melanocortin (MC4) = molecular target: T4, Human Melanocortin (MC4) (Homo sapiens, UniProt P32245); assay: Radioligand binding, human melanocortin MC4 membranes, FlashPlate, [125I]-NDP-αMSH; conditions: compound at 10 μM, [125I]-NDP-αMSH
T4 construct: purchased Perkin Elmer Biosignal
T4 sequence (P32245 whole entry): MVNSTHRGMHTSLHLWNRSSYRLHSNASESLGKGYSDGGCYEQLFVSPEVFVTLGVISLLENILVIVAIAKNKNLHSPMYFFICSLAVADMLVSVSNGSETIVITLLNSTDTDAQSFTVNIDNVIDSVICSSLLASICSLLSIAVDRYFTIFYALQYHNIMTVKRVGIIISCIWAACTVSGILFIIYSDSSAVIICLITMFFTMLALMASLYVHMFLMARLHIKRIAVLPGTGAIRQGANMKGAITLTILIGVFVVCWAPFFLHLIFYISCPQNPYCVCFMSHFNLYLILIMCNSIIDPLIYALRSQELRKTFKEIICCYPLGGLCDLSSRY
Method in brief: as §1

Human melanocortin (MC5) = molecular target: T5, Human melanocortin (MC5) (Homo sapiens, UniProt P33032); assay: Radioligand binding, human melanocortin MC5 membranes, FlashPlate, [125I]-NDP-αMSH; conditions: compound at 10 μM, [125I]-NDP-αMSH
T5 construct: purchased Perkin Elmer Biosignal
T5 sequence (P33032 whole entry): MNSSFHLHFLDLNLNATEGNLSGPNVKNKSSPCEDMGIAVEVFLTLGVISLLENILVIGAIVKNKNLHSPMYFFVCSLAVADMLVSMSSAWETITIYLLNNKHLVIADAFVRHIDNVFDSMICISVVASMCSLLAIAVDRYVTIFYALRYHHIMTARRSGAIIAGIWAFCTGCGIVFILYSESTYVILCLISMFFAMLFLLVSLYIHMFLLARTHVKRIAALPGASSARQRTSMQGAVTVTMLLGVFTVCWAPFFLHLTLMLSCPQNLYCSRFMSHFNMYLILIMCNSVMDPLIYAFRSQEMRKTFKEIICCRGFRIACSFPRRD
Method in brief: as §1

[1] = molecular target: T6, Human melanin-concentrating hormone (MCH1) (Homo sapiens, UniProt Q99705); assay: Radioligand binding, human melanin-concentrating hormone MCH1 membranes, FlashPlate, [125I]-S36057; conditions: compound at 10 μM
T6 construct: purchased Perkin Elmer Biosignal
T6 sequence (Q99705 whole entry): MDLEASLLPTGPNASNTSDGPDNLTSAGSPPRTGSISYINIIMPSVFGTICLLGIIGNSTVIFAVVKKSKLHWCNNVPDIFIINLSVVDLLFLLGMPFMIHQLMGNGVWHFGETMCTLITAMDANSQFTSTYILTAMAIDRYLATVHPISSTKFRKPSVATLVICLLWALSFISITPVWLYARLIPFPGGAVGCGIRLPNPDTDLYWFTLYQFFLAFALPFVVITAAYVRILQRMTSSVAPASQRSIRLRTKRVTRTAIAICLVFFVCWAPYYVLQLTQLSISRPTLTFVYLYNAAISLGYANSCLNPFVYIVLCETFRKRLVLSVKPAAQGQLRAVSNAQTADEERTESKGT
Method in brief: as §1

Human μ-opioid (MOP) = molecular target: T7, Human μ-opioid (MOP) (Homo sapiens, UniProt P35372); assay: Radioligand binding, human μ-opioid (MOP) membranes, FlashPlate, [3H]-Naloxone; conditions: compound at 10 μM, [3H]-Naloxone
T7 construct: purchased Perkin Elmer Biosignal
T7 sequence (P35372 whole entry): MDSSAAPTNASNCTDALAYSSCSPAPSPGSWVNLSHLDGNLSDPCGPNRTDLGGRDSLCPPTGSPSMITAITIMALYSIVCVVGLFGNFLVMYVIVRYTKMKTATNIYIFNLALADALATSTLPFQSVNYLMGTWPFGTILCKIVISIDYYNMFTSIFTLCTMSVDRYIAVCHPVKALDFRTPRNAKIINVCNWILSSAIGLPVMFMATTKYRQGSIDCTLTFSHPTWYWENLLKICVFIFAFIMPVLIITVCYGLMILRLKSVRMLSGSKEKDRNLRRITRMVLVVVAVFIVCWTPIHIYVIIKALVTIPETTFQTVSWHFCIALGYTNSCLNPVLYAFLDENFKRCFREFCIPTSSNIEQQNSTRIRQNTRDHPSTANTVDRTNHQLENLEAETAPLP
Method in brief: as §1

Human neurokinin (NK1) = molecular target: T8, Human neurokinin (NK1) (Homo sapiens, UniProt P25103); assay: Radioligand binding, human neurokinin NK1 membranes, filtration, [125I]-Substance P; conditions: compound at 10 μM, [125I]-Substance P
T8 construct: purchased Perkin Elmer Biosignal
T8 sequence (P25103 whole entry): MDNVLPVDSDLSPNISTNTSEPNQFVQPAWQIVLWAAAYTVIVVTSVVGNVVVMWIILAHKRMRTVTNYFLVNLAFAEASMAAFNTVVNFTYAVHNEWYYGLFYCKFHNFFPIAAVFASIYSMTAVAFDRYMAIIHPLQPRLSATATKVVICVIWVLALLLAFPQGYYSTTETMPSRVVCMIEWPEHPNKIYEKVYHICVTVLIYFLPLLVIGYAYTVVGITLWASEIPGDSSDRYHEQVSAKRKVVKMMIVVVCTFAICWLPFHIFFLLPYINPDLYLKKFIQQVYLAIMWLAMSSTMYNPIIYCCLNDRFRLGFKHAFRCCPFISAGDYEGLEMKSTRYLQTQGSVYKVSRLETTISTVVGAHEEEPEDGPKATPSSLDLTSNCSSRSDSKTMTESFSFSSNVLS
Method in brief: as §2

[2] = molecular target: T9, Human neuropeptide Y (NPY-Y1) (Homo sapiens, UniProt P25929); assay: Radioligand binding, human neuropeptide Y NPY-Y1 membranes, FlashPlate, [125I]-PYY; conditions: compound at 10 μM, [125I]-PYY
T9 construct: purchased Perkin Elmer Biosignal
T9 sequence (P25929 1-384): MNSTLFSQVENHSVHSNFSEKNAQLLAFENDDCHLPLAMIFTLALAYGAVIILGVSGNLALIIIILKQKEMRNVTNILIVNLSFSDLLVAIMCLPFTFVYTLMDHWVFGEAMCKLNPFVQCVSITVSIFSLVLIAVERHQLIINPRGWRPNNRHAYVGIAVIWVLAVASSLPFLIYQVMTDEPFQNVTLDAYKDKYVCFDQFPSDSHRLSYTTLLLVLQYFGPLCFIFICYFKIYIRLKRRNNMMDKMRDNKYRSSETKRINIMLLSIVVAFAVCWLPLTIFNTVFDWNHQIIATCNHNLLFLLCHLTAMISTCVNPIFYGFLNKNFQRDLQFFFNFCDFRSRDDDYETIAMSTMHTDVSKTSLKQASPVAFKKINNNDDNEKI
Method in brief: as §1

Human opioid (ORL1) = molecular target: T10, Human opioid (ORL1) (Homo sapiens, UniProt P41146); assay: Radioligand binding, human opioid ORL1 membranes, FlashPlate, [125I]-Nociceptin; conditions: compound at 10 μM, [125I]-Nociceptin
T10 construct: purchased Perkin Elmer Biosignal
T10 sequence (P41146 whole entry): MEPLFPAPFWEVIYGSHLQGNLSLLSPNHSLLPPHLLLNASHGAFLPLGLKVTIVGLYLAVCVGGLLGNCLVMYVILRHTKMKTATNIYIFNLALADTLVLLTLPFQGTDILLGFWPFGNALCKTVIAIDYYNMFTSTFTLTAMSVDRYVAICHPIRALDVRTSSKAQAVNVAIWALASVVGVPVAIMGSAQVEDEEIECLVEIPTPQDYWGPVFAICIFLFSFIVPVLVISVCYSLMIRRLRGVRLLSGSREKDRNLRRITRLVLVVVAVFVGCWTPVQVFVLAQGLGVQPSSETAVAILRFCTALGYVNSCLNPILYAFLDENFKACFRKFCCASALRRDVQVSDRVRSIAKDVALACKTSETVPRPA
Method in brief: as §1

Mouse urotensin (mUR2) = molecular target: T11, Mouse urotensin (mUR2) (Mus musculus, UniProt Q8VIH9); assay: Radioligand binding, mouse urotensin mUR2 membranes, FlashPlate, [125I]-Urotensin II; conditions: compound at 10 μM, [125I]-Urotensin II
T11 construct: purchased Perkin Elmer Biosignal
T11 sequence (Q8VIH9 1-385): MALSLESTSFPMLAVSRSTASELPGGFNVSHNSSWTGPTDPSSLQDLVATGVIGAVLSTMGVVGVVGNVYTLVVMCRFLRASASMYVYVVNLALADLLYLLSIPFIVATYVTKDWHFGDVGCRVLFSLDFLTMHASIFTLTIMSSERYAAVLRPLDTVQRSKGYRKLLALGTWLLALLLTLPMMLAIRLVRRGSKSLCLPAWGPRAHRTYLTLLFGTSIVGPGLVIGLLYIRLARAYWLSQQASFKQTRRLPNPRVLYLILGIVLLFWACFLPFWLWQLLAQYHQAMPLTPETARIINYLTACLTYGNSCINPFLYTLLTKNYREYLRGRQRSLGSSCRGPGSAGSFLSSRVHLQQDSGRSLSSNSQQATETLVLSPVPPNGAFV
Method in brief: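 Cloned mouse urotensin (mUR2) receptor membranes from Perkin Elmer Biosignal were immobilized in FlashPlate microplates using a proprietary coating. Each well got 19.5 μl buffer, then 0.5 μl of DMSO, reference ligand, or compound. Adding 5 μl of [125I]-Urotensin II, diluted to 5× final concentration in binding buffer, started binding. Plates were sealed with TopSeal-A and incubated 1 hour at room temperature in the dark. Wells were counted for 30 seconds each on a TopCount after a 60-second delay, and percentage inhibition was calculated.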

T1 sequence (P41143 whole entry): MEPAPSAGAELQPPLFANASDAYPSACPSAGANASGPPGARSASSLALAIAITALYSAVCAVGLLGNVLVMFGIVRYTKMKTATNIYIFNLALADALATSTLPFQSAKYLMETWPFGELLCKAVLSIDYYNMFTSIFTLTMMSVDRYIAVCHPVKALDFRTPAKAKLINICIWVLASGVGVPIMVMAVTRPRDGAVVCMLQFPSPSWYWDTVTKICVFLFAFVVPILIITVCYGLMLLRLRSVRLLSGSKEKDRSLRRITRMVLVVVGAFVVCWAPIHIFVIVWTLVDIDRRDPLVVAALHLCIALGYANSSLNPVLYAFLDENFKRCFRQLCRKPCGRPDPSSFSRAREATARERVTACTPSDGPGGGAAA

SMILES: NCCC(=O)N[C@H]1C(OCc2ccc3ccccc3c2)O[C@H](COCc2ccc3ccccc3c2)[C@@H](O)[C@@H]1OCc1ccccc1 (stereo partly drawn) [compound 449]
- A1: inhibition of radioligand binding (Human δ-opioid (DOP); human DOP membranes): − (“−” indicates less than 50% inhibition at 10 μM)
- A2: inhibition of radioligand binding (Human κ-Opioid (KOP); human KOP membranes): − (“−” indicates less than 50% inhibition at 10 μM)
- A3: inhibition of radioligand binding (Human Melanocortin (MC3); human MC3 membranes, 10 µM): + (“+” indicates greater than 50% inhibition at 10 μM)
- A4: inhibition of radioligand binding (Human Melanocortin (MC4); human MC4 membranes): + (“+” indicates greater than 50% inhibition at 10 μM)
- A5: inhibition of radioligand binding (Human melanocortin (MC5); human MC5 membranes): + (“+” indicates greater than 50% inhibition at 10 μM)
- A6: inhibition of radioligand binding ([1]; [125I]-S36057, human MCH1 membranes, 10 µM): + (“+” indicates greater than 50% inhibition at 10 μM)
- A7: inhibition of radioligand binding (Human μ-opioid (MOP); human MOP membranes): − (“−” indicates less than 50% inhibition at 10 μM)
- A8: inhibition of radioligand binding (Human neurokinin (NK1); human NK1 membranes): + (“+” indicates greater than 50% inhibition at 10 μM)
- A9: inhibition of radioligand binding ([2]; human NPY-Y1 membranes): − (“−” indicates less than 50% inhibition at 10 μM)
- A10: inhibition of radioligand binding (Human opioid (ORL1); human ORL1 membranes, 10 µM): + (“+” indicates greater than 50% inhibition at 10 μM)
- A11: inhibition of radioligand binding (Mouse urotensin (mUR2); mouse mUR2 membranes): − (“−” indicates less than 50% inhibition at 10 μM)

SMILES: NCCC(=O)NC1C(OCc2ccc(Cl)cc2)OC(COCc2ccccc2)C(O)C1OCc1ccc2ccccc2c1 (single isomer, unassigned) [compound 480]
- A1: inhibition of radioligand binding, human δ-opioid (DOP) (Human δ-opioid (DOP)): − (“−” indicates less than 50% inhibition at 10 μM)
- A2: inhibition of radioligand binding, human κ-opioid (KOP) (Human κ-Opioid (KOP)): − (“−” indicates less than 50% inhibition at 10 μM)
- A3: inhibition of radioligand binding, human melanocortin (MC3) (Human Melanocortin (MC3)): − (“−” indicates less than 50% inhibition at 10 μM)
- A4: inhibition of radioligand binding, human melanocortin (MC4) (Human Melanocortin (MC4); 10 µM): + (“+” indicates greater than 50% inhibition at 10 μM)
- A5: inhibition of radioligand binding, human melanocortin (MC5) (Human melanocortin (MC5); 10 µM): + (“+” indicates greater than 50% inhibition at 10 μM)
- A6: inhibition of radioligand binding, human melanin-concentrating hormone (MCH1) ([1]; [125I]-S36057, 10 µM): + (“+” indicates greater than 50% inhibition at 10 μM)
- A7: inhibition of radioligand binding, human μ-opioid (MOP) (Human μ-opioid (MOP); 10 µM): + (“+” indicates greater than 50% inhibition at 10 μM)
- A8: inhibition of radioligand binding, human neurokinin (NK1) (Human neurokinin (NK1)): + (“+” indicates greater than 50% inhibition at 10 μM)
- A9: inhibition of radioligand binding, human neuropeptide Y (NPY-Y1) [2]: − (“−” indicates less than 50% inhibition at 10 μM)
- A10: inhibition of radioligand binding, human opioid (ORL1) (Human opioid (ORL1)): − (“−” indicates less than 50% inhibition at 10 μM)
- A11: inhibition of radioligand binding, mouse urotensin (mUR2) (Mouse urotensin (mUR2)): − (“−” indicates less than 50% inhibition at 10 μM)

SMILES: COCC1OC(OCc2ccc3ccccc3c2)C(NC(=O)CCCN)C(OCc2ccccc2)C1O (stereo not drawn) [compound 233]
- A1: inhibition of radioligand binding (Human δ-opioid (DOP); FlashPlate): − (“−” indicates less than 50% inhibition at 10 μM)
- A2: inhibition of radioligand binding (Human κ-Opioid (KOP); filtration): − (“−” indicates less than 50% inhibition at 10 μM)
- A3: inhibition of radioligand binding (Human Melanocortin (MC3); FlashPlate): − (“−” indicates less than 50% inhibition at 10 μM)
- A4: inhibition of radioligand binding (Human Melanocortin (MC4); FlashPlate): − (“−” indicates less than 50% inhibition at 10 μM)
- A5: inhibition of radioligand binding (Human melanocortin (MC5); FlashPlate): − (“−” indicates less than 50% inhibition at 10 μM)
- A6: inhibition of radioligand binding ([1]; [125I]-S36057, FlashPlate): − (“−” indicates less than 50% inhibition at 10 μM)
- A7: inhibition of radioligand binding (Human μ-opioid (MOP); FlashPlate): − (“−” indicates less than 50% inhibition at 10 μM)
- A8: inhibition of radioligand binding (Human neurokinin (NK1); filtration): + (“+” indicates greater than 50% inhibition at 10 μM)
- A9: inhibition of radioligand binding ([2]; FlashPlate): − (“−” indicates less than 50% inhibition at 10 μM)
- A10: inhibition of radioligand binding (Human opioid (ORL1); FlashPlate): − (“−” indicates less than 50% inhibition at 10 μM)
- A11: inhibition of radioligand binding (Mouse urotensin (mUR2); FlashPlate): − (“−” indicates less than 50% inhibition at 10 μM)
